Assay results published in patent US6482921B1, “Uridyl peptide antibiotic (UPA) derivatives, their synthesis and use” (Essential Therapeutics, Inc., priority 1999, dated 2002).
Converted amounts (≈) assume the structure as drawn.

Legend:
[1] = system: Pseudomonas aeruginosa PAM 1020; experiment: MIC broth microdilution, P. aeruginosa PAM 1020 (wild type); assay type: cell-based; conditions: P. aeruginosa PAM 1020
[2] = system: Pseudomonas aeruginosa PAM 1154; experiment: MIC broth microdilution, P. aeruginosa PAM 1154 (OprM::Hg); assay type: cell-based; conditions: P. aeruginosa PAM 1154 OprM::Hg
[3] = system: Pseudomonas aeruginosa PAM 1135; experiment: MIC broth microdilution, P. aeruginosa PAM 1135 (high level UPA resistance); assay type: cell-based; conditions: P. aeruginosa PAM 1135 UPA1^r
[4] = system: Pseudomonas aeruginosa PAM 1323; experiment: MIC broth microdilution, P. aeruginosa PAM 1323 (medium level UPA resistance); assay type: cell-based
Escherichia Coli MC 4100 = experiment: MIC broth microdilution, E. coli MC 4100 (wild type); assay type: cell-based; conditions: E. coli MC 4100
[5] = system: Escherichia Coli MC 4100 AcrAB; experiment: MIC broth microdilution, E. coli MC 4100 AcrAB (ΔAcrAB); assay type: cell-based; conditions: E. coli AcrAB
[6] = system: Escherichia Coli MC 4100 AcrAB UPA3r; experiment: MIC broth microdilution, E. coli MC 4100 AcrAB UPA3r (ΔAcrAB, UPA resistant); assay type: cell-based; conditions: E. coli AcrAB UPA3^r
[7] = system: Staphylococcus aureus ATCC 29213; experiment: MIC broth microdilution, S. aureus ATCC 29213 (wild type); assay type: cell-based; conditions: S. aureus ATCC 29213
[8] = system: Staphylococcus aureus 8325-4; experiment: MIC broth microdilution, S. aureus 8325-4 (wild type); assay type: cell-based; conditions: S. aureus 8325-4
[9] = system: Pasteurella multocida pm002; experiment: MIC broth microdilution, P. multocida pm002 (wild type); assay type: cell-based
[10] = system: Mycobacterium fortuitum ATCC 6841; experiment: MIC broth microdilution, M. fortuitum ATCC 6841; conditions: 72 hours at 35° C., CAMHB
[11] = system: Mycobacterium smegmatis ATCC 19420; experiment: MIC broth microdilution, M. smegmatis ATCC 19420; conditions: 72 hours at 35° C., CAMHB

| SMILES | MIC (μg/ml) Broth microdilution [1] | MIC (μg/ml) Broth microdilution [2] | MIC (μg/ml) Broth microdilution [3] | MIC (μg/ml) Broth microdilution [4] | MIC (μg/ml) Broth microdilution (Escherichia Coli MC 4100) | MIC (μg/ml) Broth microdilution [5] | MIC (μg/ml) Broth microdilution [6] | MIC (μg/ml) Broth microdilution [7] | MIC (μg/ml) Broth microdilution [8] | MIC (μg/ml) Broth microdilution [9] | MIC Broth microdilution M. fortuitum ATCC 6841 [10] | MIC Broth microdilution M. smegmatis ATCC19420 [11] |
| --- | --- | --- | --- | --- | --- | --- | --- | --- | --- | --- | --- | --- |
| CC(N)C(=O)N(C)C(C)C(NC(=O)C(Cc1ccc(Cl)cc1)NC(=O)NC(Cc1ccc(O)cc1)C(=O)O)C(=O)NCC1CC(O)C(n2ccc(=O)[nH]c2=O)O1 [Compound 135, 1-[5′-[(2S,3S)-N^3-L-Alanyl-N^2-[N-[[(1S)-1-carboxy-4-hydroxyphenethyl]carbamoyl]-L-4-chlorophenylalanyl]-N^3-methyl-2,3-diaminobutyramido]-3′,5′-dideoxy-α-L-arabinofuranosyl]uracil] | 64 µg/mL (≈ 79.9 µM) | 16 µg/mL (≈ 20 µM) | >512 µg/mL | >512 µg/mL | 8 µg/mL (≈ 9.98 µM) | <1 µg/mL | 2 µg/mL (≈ 2.5 µM) | 512 µg/mL (≈ 639 µM) | >512 µg/mL | 512 µg/mL (≈ 639 µM) | 64 µg/mL (≈ 79.9 µM) | 16 µg/mL (≈ 20 µM) |
| CC(C)CC(N)C(=O)N(C)C(C)C(NC(=O)C(Cc1ccc(F)cc1)NC(=O)NC(Cc1c[nH]c2ccccc12)C(=O)O)C(=O)NCC1CC(O)C(n2ccc(=O)[nH]c2=O)O1 [Compound 117, 1-[5′-[(2S,3S)-N^2-[N-[[(1S)-1-Carboxy-2-indol-3-ylethyl]carbamoyl]-L-4-fluorophenylalanyl]-N^3-L-leucyl-N^3-methyl-2,3-diaminobutyramido]-3′,5′-dideoxy-α-L-arabinofuranosyl]uracil] | 64 µg/mL (≈ 75.3 µM) | 64 µg/mL (≈ 75.3 µM) | >512 µg/mL | >512 µg/mL | >512 µg/mL | <1 µg/mL | 32 µg/mL (≈ 37.7 µM) | >512 µg/mL | >512 µg/mL | 256 µg/mL (≈ 301 µM) | 64 µg/mL (≈ 75.3 µM) | 8 µg/mL (≈ 9.41 µM) |
| CC(N)C(=O)N(C)C(C)C(NC(=O)C(Cc1ccc(I)cc1)NC(=O)NC(Cc1ccc(O)cc1)C(=O)O)C(=O)NCC1CC(O)C(n2ccc(=O)[nH]c2=O)O1 [Compound 134, 1-[5′-[(2S,3S)-N^3-L-Alanyl-N^2-[N-[[(1S)-1-carboxy-4-hydroxyphenethyl]carbamoyl]-L-4-iodophenylalanyl]-N^3-methyl-2,3-diaminobutyramido]-3′,5′-dideoxy-α-L-arabinofuranosyl]uracil] | 256 µg/mL (≈ 287 µM) | 32 µg/mL (≈ 35.8 µM) | >512 µg/mL | >512 µg/mL | 128 µg/mL (≈ 143 µM) | <1 µg/mL | 32 µg/mL (≈ 35.8 µM) | 512 µg/mL (≈ 574 µM) | 512 µg/mL (≈ 574 µM) | >512 µg/mL | 32 µg/mL (≈ 35.8 µM) | 16 µg/mL (≈ 17.9 µM) |
| CSCCC(NC(=O)NC(Cc1c[nH]c2ccccc12)C(=O)O)C(=O)NC(C(=O)NCC1CC(O)C(n2ccc(=O)[nH]c2=O)O1)C(C)N(C)C(=O)CN [Compound 112, 1-[5′-[(2S,3S)-N^2-[N-[[(1S)-1-Carboxy-2-indol-3-ylethyl]carbamoyl]-L-methionyl]-N^3-glycyl-N^3-methyl-2,3-diaminobutyramido]-3′,5′-dideoxy-α-L-arabinofuranosyl]uracil] | 16 µg/mL (≈ 21.1 µM) | 4 µg/mL (≈ 5.26 µM) | >512 µg/mL | 256 µg/mL (≈ 337 µM) | >512 µg/mL | 2 µg/mL (≈ 2.63 µM) | 16 µg/mL (≈ 21.1 µM) | >512 µg/mL | >512 µg/mL | 128 µg/mL (≈ 168 µM) |  |  |
| C[C@@H]([C@H](NC(=O)[C@H](Cc1ccccc1)NC(=O)N[C@@H](Cc1ccc(O)cc1)C(=O)O)C(=O)NC[C@H]1C[C@@H](O)[C@H](n2ccc(=O)[nH]c2=O)O1)N(C)C(=O)[C@@H](N)COCc1ccccc1 [Compound 150, 1-[5′-[(2S,3S)-N^3-(L-O-Benzylserinyl)-N^2-[N-[[(1S)-1-carboxy-4-hydroxyphenethyl]carbamoyl]-L-phenylalanyl]-N^3-methyl-2,3-diaminobutyramido]-3′,5′-dideoxy-α-L-arabinofuranosyl]uracil] | 256 µg/mL (≈ 293 µM) | 64 µg/mL (≈ 73.3 µM) | 256 µg/mL (≈ 293 µM) | 256 µg/mL (≈ 293 µM) | 512 µg/mL (≈ 587 µM) | 8 µg/mL (≈ 9.16 µM) | 512 µg/mL (≈ 587 µM) | >512 µg/mL | >512 µg/mL | 512 µg/mL (≈ 587 µM) |  |  |
| CC(C(NC(=O)C(Cc1ccc(F)cc1)NC(=O)NC(Cc1ccc(O)cc1)C(=O)O)C(=O)NCC1CC(O)C(n2ccc(=O)[nH]c2=O)O1)N(C)C(=O)C(N)Cc1ccc(F)cc1 [Compound 105, 1-[5′[(2S,3S)-N^2-[N-[[(1S)-1-Carboxy-4-hydroxyphenethyl]carbamoyl]-L-4-fluorophenylalanyl]-N^3-L-4-fluorophenylalanyl-N^3-methyl-2,3-diaminobutyramido]-3′,5′-dideoxy-α-L-arabinofuranosyl]uracil] | 256 µg/mL (≈ 291 µM) | 64 µg/mL (≈ 72.8 µM) | 256 µg/mL (≈ 291 µM) | 256 µg/mL (≈ 291 µM) | 512 µg/mL (≈ 583 µM) | 16 µg/mL (≈ 18.2 µM) | 512 µg/mL (≈ 583 µM) | >512 µg/mL | >512 µg/mL | 512 µg/mL (≈ 583 µM) |  |  |
| CC(N)C(=O)N(C)C(C)C(NC(=O)C(Cc1cccs1)NC(=O)NC(Cc1ccc(O)cc1)C(=O)O)C(=O)NCC1CC(O)C(n2ccc(=O)[nH]c2=O)O1 [Compound 119, 1-[5-[(2S,3S)-N^3-L-Alanyl-N^2-[N-[[(1S)-1-carboxy-4-hydroxyphenethyl]carbamoyl]-L-3-(2-thienyl)alanyl]-N^3-methyl-2,3-diaminobutyramido]-3′,5′-dideoxy-α-L-arabinofuranosyl]uracil] | 64 µg/mL (≈ 82.8 µM) | 32 µg/mL (≈ 41.4 µM) | >512 µg/mL | >512 µg/mL | >512 µg/mL | 4 µg/mL (≈ 5.18 µM) | 64 µg/mL (≈ 82.8 µM) | >512 µg/mL | >512 µg/mL | >512 µg/mL |  |  |
